Data: PubChem BioAssay AID1195 (EPA DSSTox, 2008)

System: human maximum recommended daily dose, FDA database
Test: DSSTox (FDAMDD) FDA Maximum (Recommended) Daily Dose Database
Details: hits give low values
Text: The Food and Drug Administration (FDA) Center for Drug Evaluation and Research, Office of Pharmaceutical Science, Informatics and Computational Safety Analysis Staff's Maximum Recommended Daily Dose (FDAMDD) database contains values for over 1200 pharmaceuticals listed in Martindale: The Extra Pharmacopoeia (1973, 1983, and 1993) and The Physicians' Desk Reference (1995 and 1999). Some classes of chemicals were excluded from the FDAMDD database due to their unsuitability for most QSAR modeling programs. These were inorganic chemicals, high molecular weight polymers (>5000 Daltons), fibers, salts, mixtures of organic chemicals, and small molecules (<100 Daltons). FDAMDD is the non-proprietary portion of the database that was used in the QSAR analysis reported in the Main Citation. DSSTox FDAMDD has fewer substance records than the original MRDD Source database due to consolidation of partial structures (i.e., complexed entities) into a single record and elimination of duplicate entries. DSSTox FDAMDD also differs from the MRDD Source database in presenting complete structural information pertaining to the actual salt or complexed form corresponding to the listed ChemicalName and CASRN. According to the Source authors, there are a number of cases where multiple related forms or derivatives of a drug were listed as separate records but were assumed to fall under the same clinical toxicity assessment and, therefore, assigned the same Dose_MRDD_mg activity value. For the DSSTox FDAMDD, we have labeled these derivatives in the ChemClass_MRDD_grouping field and provide their counts in the ChemicalReplicateCount field to highlight their special nature.
Maximum recommended daily dose (or maximum recommended therapeutic dose) values were determined from pharmaceutical clinical trials that employed an oral route of exposure and daily treatments, usually for 3-12 months. Drugs were given as single or divided dose treatment regimens to achieve desired pharmacological effects. Roughly 5% of the pharmaceuticals in the FDAMDD data file were antineoplastics and anesthetics and were administered intravenously and/or intramuscularly. When separate MRDDs were reported for different routes of exposure, only the oral MRDD was included in the data file and only MRDD values reported for the average adult patient were used. Pharmaceuticals that are administered orally are usually tested over a limited range of doses and have MRDDs reported as mg/day. The mg/day unit was converted to mg/kg-body weight (bw)/day based upon an average adult weighing 60 kg. In contrast, the dose unit for most antineoplastic drug MRDDs is reported as mg/m2 which was converted to mg/kg-bw/day using the formula mg/kg-bw/day = mg/m2/37 for an average adult. Additionally, a few drugs had MRDDs reported in parts per million (ppm) which were converted to mg/kg-bw/day on the basis that 1000 ppm equals 25 mg/kg-bw/day for an average 60 kg adult. Activity Score is mapping of LOG10(1/Dose_MRDD_mmol) spanning activity range [MIN, MAX] onto Integer 1-100 Activity range, where 100 is highest potency and 1 is lowest potency: ActivityScore = 100 * INTEGER[(LOGINV_MRDD_mmol - MIN)/(MAX […] MIN)]. Activity Outcome is "active" for all substances, since Dose_MRDD_mmol is reported for all substances.

[1] = TherapeuticCategory: antineoplastic
[2] = TherapeuticCategory: antibacterial

Work on `O=C1CN=C(c2ccccc2)c2cc([N+](=O)[O-])ccc2N1` yielded a maximum recommended daily dose (mmol/kg-bw/day) (TherapeuticCategory: anticonvulsant, hypnotic) of 0.00118.
`O=P(O)(O)C(O)(Cc1cccnc1)P(=O)(O)O` showed a maximum recommended daily dose (mmol/kg-bw/day) (TherapeuticCategory: antiosteoporotic, Ca regulator, Ca channel blocker) of 0.000294.
`C#C[C@]1(O)CC[C@H]2[C@@H]3CCC4=CC(=O)CC[C@@H]4[C@H]3CC[C@@]21C` was tested, and the maximum recommended daily dose (mmol/kg-bw/day) (TherapeuticCategory: progestogen) was 5.6e-05.
Compound `CN(C)CCC(c1ccccc1)c1ccccn1` (configuration not stated) has a maximum recommended daily dose (mmol/kg-bw/day) (TherapeuticCategory: antihistaminic, antipruritic) of 0.0026.
Work on `C=CC[N+]1([C@H]2C[C@H]3[C@@H]4CC[C@H]5C[C@H](O)[C@@H](N6CCOCC6)C[C@]5(C)[C@H]4CC[C@]3(C)[C@H]2OC(C)=O)CCCC1` yielded a maximum recommended daily dose (mmol/kg-bw/day) (TherapeuticCategory: skeletal muscle relaxant, neuromuscular blocker) of 0.00197.
In the case of `COc1cc(C(=O)NS(=O)(=O)c2ccccc2C)ccc1Cc1cn(C)c2ccc(NC(=O)OC3CCCC3)cc12`, the maximum recommended daily dose (mmol/kg-bw/day) (TherapeuticCategory: antiasthmatic) is reported as 0.00116.
`Nc1ncn([C@@H]2O[C@H](CO)[C@@H](O)[C@H]2O)c(=O)n1` was tested, and the maximum recommended daily dose (mmol/kg-bw/day) [1] was 0.0831.
With `OCC1COC(CCI)O1` (configuration not stated) the maximum recommended daily dose (mmol/kg-bw/day) (TherapeuticCategory: expectorant) was 0.0155.
`CCOC(=O)C1(c2ccccc2)CCN(C)CC1` was tested, and the maximum recommended daily dose (mmol/kg-bw/day) (TherapeuticCategory: narcotic analgesic) was 0.0606.
`Nc1ccc(N=Nc2ccccc2)c(N)n1` showed a maximum recommended daily dose (mmol/kg-bw/day) (TherapeuticCategory: analgesic) of 0.0313.
`O=C(O)CC(O)(CC(=O)O)C(=O)O` gave a maximum recommended daily dose (mmol/kg-bw/day) (TherapeuticCategory: bactericide) of 0.52.
`NS(=O)(=O)c1cc2c(cc1Cl)NC(CSCc1ccccc1)=NS2(=O)=O` was tested, and the maximum recommended daily dose (mmol/kg-bw/day) (TherapeuticCategory: diuretic, antihypertensive) was 0.00771.
`C[C@]12COC(=O)C[C@@H]1CC[C@@H]1[C@@H]2CC[C@@]2(C)[C@H]1CC[C@]2(C)O` showed a maximum recommended daily dose (mmol/kg-bw/day) (TherapeuticCategory: androgen) of 0.00109.
For `C=CCN1CC[C@]23CCCC[C@H]2[C@H]1Cc1ccc(O)cc13`, the maximum recommended daily dose (mmol/kg-bw/day) (TherapeuticCategory: narcotic antagonist) was 0.000235.
Work on `Cn1cnc([N+](=O)[O-])c1Sc1ncnc2nc[nH]c12` yielded a maximum recommended daily dose (mmol/kg-bw/day) (TherapeuticCategory: immunosuppressant, antirheumatic) of 0.018.
Work on `C[C@H]1C[C@@H]2[C@H]([C@@H](O)C[C@@]3(C)[C@H]2CC[C@]3(O)C(=O)COC(=O)CCC(=O)O)[C@@]2(C)C=CC(=O)C=C12` yielded a maximum recommended daily dose (mmol/kg-bw/day) (TherapeuticCategory: glucocorticoid) of 0.0084.
With `O=C(O)Cn1cc(I)c(=O)c(I)c1` the maximum recommended daily dose (mmol/kg-bw/day) (TherapeuticCategory: diagnostic aid) was 0.196.
With `CCNNC(=O)[C@@H]1[C@H](c2cc(OC)c(OC)c(OC)c2)c2cc3c(cc2[C@H](O)[C@H]1CO)OCO3` the maximum recommended daily dose (mmol/kg-bw/day) [1] was 0.00702.
In the case of `CCCc1c2oc(C(=O)O)cc(=O)c2cc2c(=O)cc(C(=O)O)n(CC)c12`, the maximum recommended daily dose (mmol/kg-bw/day) (TherapeuticCategory: antiallergic, antiasthmatic) is reported as 0.000627.
Compound `NC(=O)OCC(O)COc1ccc(Cl)cc1` (configuration not stated) has a maximum recommended daily dose (mmol/kg-bw/day) (TherapeuticCategory: topical antifungal) of 0.163.
Work on `CC1=C(/C=C/C(C)=C/C=C/C(C)=C/C=C/C=C(C)/C=C/C=C(C)/C=C/C2=C(C)CCCC2(C)C)C(C)(C)CCC1` yielded a maximum recommended daily dose (mmol/kg-bw/day) (TherapeuticCategory: vitamin A precursor, UV screen) of 9.31e-05.
Work on `CC(=O)N(c1onc(C)c1C)S(=O)(=O)c1ccc(N)cc1` yielded a maximum recommended daily dose (mmol/kg-bw/day) [2] of 0.216.
Work on `CCOC(=O)Nc1ccc2c(c1)N(C(=O)CCN1CCOCC1)c1ccccc1S2` yielded a maximum recommended daily dose (mmol/kg-bw/day) (TherapeuticCategory: antiarrhythmic) of 0.0351.
With `CC(=O)O[C@H]1C[C@@H]2CC[C@@H]3[C@H](CC[C@@]4(C)[C@H]3C[C@H](N3CC[N+](C)(C)CC3)[C@@H]4OC(C)=O)[C@@]2(C)C[C@@H]1N1CC[N+](C)(C)CC1` the maximum recommended daily dose (mmol/kg-bw/day) (TherapeuticCategory: skeletal muscle relaxant) was 0.000118.
`CN[C@@H]1[C@H](O)[C@H](NC)[C@H]2O[C@@]3(O)C(=O)C[C@@H](C)O[C@H]3O[C@@H]2[C@H]1O` showed a maximum recommended daily dose (mmol/kg-bw/day) [2] of 0.201.
With `CCN(CCO)CCCC(C)Nc1ccnc2cc(Cl)ccc12` (configuration not stated) the maximum recommended daily dose (mmol/kg-bw/day) (TherapeuticCategory: antimalarial, antirheumatic, lupus erythematosus suppressant) was 0.0298.
Work on `c1ccc(CN(CC2=NCCN2)c2ccccc2)cc1` yielded a maximum recommended daily dose (mmol/kg-bw/day) (TherapeuticCategory: antihistaminic) of 0.0188.
